Measurements published in patent EP4562004B1, “NOVEL 7-SUBSTITUTED INDOLE SULFONAMIDE DERIVATIVES” (F. Hoffmann-La Roche AG, priority 2022, dated 2024).

Target: human GPR17 short isoform (Homo sapiens, UniProt Q13304)
Assay: GPR17 cAMP assay (antagonist mode, TR-FRET cAMP detection)
Format: cell-based
Conditions: CHO-K1 cells stably expressing human GPR17 short isoform; with EC80 concentration of agonist MDL29,951, IBMX 0.5mM, forskolin 15µM; normalized to reference antagonist; read-out: hGPR17 cAMP IC50
Description: CHO-K1 cells stably expressing vector containing untagged human GPR17 short isoform (Roche) were cultured at 37°C / 5% CO2 in DMEM (Dulbecco's Modified Eagle Medium):F-12 (1:1) supplemented with 10% foetal bovine serum and 400 µg/ml Geneticin.
Changes in intracellular cyclic adenosine monophosphate (cAMP) levels were quantified using the Nano-TRF Detection Assay kit (Roche Diagnostics, Cat. No. 05214386001). This assay allows for direct cAMP quantification in a homogeneous solution. cAMP is detected based on time-resolved fluorescence energy transfer (TR-FRET) and competitive binding of ruthenylated cAMP and endogenous cAMP to an anti-cAMP monoclonal antibody labeled with AlexaFluor-700. The Ruthenium complex serves as the FRET donor and transfers energy to AlexaFluor-700. The FRET signal is inversely proportional to the cAMP concentration.
CHO-GPR17S cells were detached with Accutase and resuspended in assay buffer consisting of Hank's Balanced Salt Solution (HBSS), 10mM HEPES (4-(2-hydroxyethyl) piperazine-1-ethanesulfonic acid solution) and 0.1% bovine serum albumin (pH 7.4). The cells were seeded in black 384-well plates (Corning) at a density of 10'000 cells / 20µl assay buffer until the addition of compounds.
Test antagonist compounds were serially diluted in dimethyl sulfoxide (DMSO) and spotted in 384-well plates. The compounds were then diluted in HBSS buffer supplemented with an EC80 concentration of MDL29,951 (3-(2-Carboxy-4,6-dichloroindol-3-yl)propionic acid) (GPR17 agonist) plus 3-Isobutyl-1-methylxanthine (IBMX) (0.5mM final concentration) and added to the cells at room temperature. Forskolin (15µM final concentration) was added 5 minutes after the test compounds and the cells were incubated at room temperature for 30 minutes. The assay was stopped by adding cAMP detection mix (containing detergents for cell lysis) for 90 minutes at room temperature.
Cellular cAMP was measured using a Paradigm reader (Molecular Devices). The raw data was used to calculate the FRET signal based on the assay's P-factor as per cAMP kit instructions. The data was normalized to the maximal activity of a reference antagonist and dose response curves were fitted to the percent activity of the test compounds using a sigmoidal dose response model (Genedata Screener).
Results in the hGPR17 cAMP assay are provided for compounds of formula I in Table 1 Table 1: […]

human GPR17 short isoform, sequence (Q13304 29-367): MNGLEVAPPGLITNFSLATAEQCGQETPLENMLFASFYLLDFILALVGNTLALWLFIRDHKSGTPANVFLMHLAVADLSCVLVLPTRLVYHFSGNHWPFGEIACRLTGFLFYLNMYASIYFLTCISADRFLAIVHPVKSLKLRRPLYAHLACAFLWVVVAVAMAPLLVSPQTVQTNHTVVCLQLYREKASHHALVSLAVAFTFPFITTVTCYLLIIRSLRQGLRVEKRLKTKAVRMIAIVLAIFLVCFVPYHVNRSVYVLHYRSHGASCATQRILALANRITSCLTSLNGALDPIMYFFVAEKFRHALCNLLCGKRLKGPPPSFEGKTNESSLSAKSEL

Row | SMILES | IC50 [nM]
1 | COc1nc(NS(=O)(=O)c2c[nH]c3c(-n4cncn4)c(Cl)ccc23)nc(OC)c1CC(F)F [Example 37, 6-chloro-N-[5-(2,2-difluoroethyl)-4,6-dimethoxy-pyrimidin-2-yl]-7-(1,2,4-triazol-1-yl)-1H-indole-3-sulfonamide] | 60
2 | COc1nc(NS(=O)(=O)c2c[nH]c3c(-n4nccn4)c(C(F)F)ccc23)nc(OC)c1OCCF [Example 41, 6-(difluoromethyl)-N-[5-(2-fluoroethoxy)-4,6-dimethoxy-pyrimidin-2-yl]-7-(triazol-2-yl)-1H-indole-3-sulfonamide] | 64
3 | COc1nc(NS(=O)(=O)c2c[nH]c3c(-n4nccn4)c(F)ccc23)nc(OC)c1C1CC1C#N (stereo not shown) [Example 36, N-[5-(2-cyanocyclopropyl)-4,6-dimethoxy-pyrimidin-2-yl]-6-fluoro-7-(triazol-2-yl)-1H-indole-3-sulfonamide] | 82
4 | COc1nc(NS(=O)(=O)c2c[nH]c3c(-n4nccn4)c(Br)ccc23)nc(OC)c1OCC(F)F [Example 30, 6-bromo-N-[5-(2,2-difluoroethoxy)-4,6-dimethoxy-pyrimidin-2-yl]-7-(triazol-2-yl)-1H-indole-3-sulfonamide] | 23
5 | COc1nc(NS(=O)(=O)c2c[nH]c3c(-n4cccn4)c(C(F)F)ccc23)nc(OC)c1OC(F)F [Example 49, N-[5-(difluoromethoxy)-4,6-dimethoxy-pyrimidin-2-yl]-6-(difluoromethyl)-7-pyrazol-1-yl-1H-indole-3-sulfonamide] | 108
6 | COc1nc(NS(=O)(=O)c2c[nH]c3c(-n4cccn4)c(C(F)F)ccc23)nc(OC)c1OCC(F)F [Example 50, N-[5-(2,2-difluoroethoxy)-4,6-dimethoxy-pyrimidin-2-yl]-6-(difluoromethyl)-7-pyrazol-1-yl-1H-indole-3-sulfonamide] | 65
7 | [2H]C([2H])(F)C([2H])([2H])Oc1c(OC)nc(NS(=O)(=O)c2c[nH]c3c(-n4nccn4)c(Cl)ccc23)nc1OC [Example 85, 6-chloro-N-[4,6-dimethoxy-5-(1,1,2,2-tetradeuterio-2-fluoro-ethoxy)pyrimidin-2-yl]-7-(triazol-2-yl)-1H-indole-3-sulfonamide] | 42
8 | COc1nc(NS(=O)(=O)c2c[nH]c3c(-n4ccc(F)n4)c(Cl)ccc23)nc(OC)c1OCC(F)F [Example 53, 6-chloro-N-[5-(2,2-difluoroethoxy)-4,6-dimethoxy-pyrimidin-2-yl]-7-(3-fluoropyrazol-1-yl)-1H-indole-3-sulfonamide] | 25
9 | COc1nc(NS(=O)(=O)c2c[nH]c3c(-n4nccc4C)c(Cl)ccc23)nc(OC)c1OCC(F)F [Example 46, 6-chloro-N-[5-(2,2-difluoroethoxy)-4,6-dimethoxy-pyrimidin-2-yl]-7-(5-methylpyrazol-1-yl)-1H-indole-3-sulfonamide] | 45
10 | COc1nc(NS(=O)(=O)c2c[nH]c3c(-n4nccn4)c(Cl)ccc23)nc(OC)c1OC(C)(C)CF [Example 58, 6-chloro-N-[5-(2-fluoro-1,1-dimethyl-ethoxy)-4,6-dimethoxy-pyrimidin-2-yl]-7-(triazol-2-yl)-1H-indole-3-sulfonamide] | 1270
11 | COc1nc(NS(=O)(=O)c2c[nH]c3c(-n4nccn4)c(Cl)ccc23)nc(OC)c1CCC#N [Example 61, 6-chloro-N-[5-(2-cyanoethyl)-4,6-dimethoxy-pyrimidin-2-yl]-7-(triazol-2-yl)-1H-indole-3-sulfonamide] | 29
12 | COc1nc(NS(=O)(=O)c2c[nH]c3c(-n4ccnn4)c(Cl)ccc23)nc(OC)c1CC(F)F [Example 40, 6-chloro-N-[5-(2,2-difluoroethyl)-4,6-dimethoxy-pyrimidin-2-yl]-7-(triazol-1-yl)-1H-indole-3-sulfonamide] | 40
13 | COc1nc(NS(=O)(=O)c2c[nH]c3c(-n4nccn4)c(Cl)ccc23)nc(OC)c1OCC(F)F [Example 9, 6-chloro-N-[5-(2,2-difluoroethoxy)-4,6-dimethoxy-pyrimidin-2-yl]-7-(triazol-2-yl)-1H-indole-3-sulfonamide] | 32
14 | COc1nc(NS(=O)(=O)c2c[nH]c3c(-n4nccn4)c(C(F)F)ccc23)nc(OC)c1CC(F)F [Example 42, N-[5-(2,2-difluoroethyl)-4,6-dimethoxy-pyrimidin-2-yl]-6-(difluoromethyl)-7-(triazol-2-yl)-1H-indole-3-sulfonamide] | 50
15 | COc1nc(NS(=O)(=O)c2c[nH]c3c(-n4ccc(F)n4)c(Cl)ccc23)nc(OC)c1CC(F)F [Example 55, 6-chloro-N-[5-(2,2-difluoroethyl)-4,6-dimethoxy-pyrimidin-2-yl]-7-(3-fluoropyrazol-1-yl)-1H-indole-3-sulfonamide] | 25
16 | COc1nc(NS(=O)(=O)c2c[nH]c3c(-n4nccn4)c(Cl)ccc23)nc(OC)c1C [Example 62, 6-chloro-N-(4,6-dimethoxy-5-methyl-pyrimidin-2-yl)-7-(triazol-2-yl)-1H-indole-3-sulfonamide] | 19
17 | COc1nc(NS(=O)(=O)c2c[nH]c3c(-n4cccn4)c(C)ccc23)nc(OC)c1OCCF [Example 82, N-[5-(2-fluoroethoxy)-4,6-dimethoxy-pyrimidin-2-yl]-6-methyl-7-pyrazol-1-yl-1H-indole-3-sulfonamide] | 68
18 | COc1nc(NS(=O)(=O)c2c[nH]c3c(-n4cccn4)c(C(F)F)ccc23)nc(OC)c1OCCF [Example 51, 6-(difluoromethyl)-N-[5-(2-fluoroethoxy)-4,6-dimethoxy-pyrimidin-2-yl]-7-pyrazol-1-yl-1H-indole-3-sulfonamide] | 94
19 | COc1nc(NS(=O)(=O)c2c[nH]c3c(-n4cccn4)c(Cl)ccc23)nc(OC)c1C1CC1C#N (stereo not shown) [Example 73, 6-chloro-N-[5-(2-cyanocyclopropyl)-4,6-dimethoxy-pyrimidin-2-yl]-7-pyrazol-1-yl-1H-indole-3-sulfonamide] | 41
20 | COc1nc(NS(=O)(=O)c2c[nH]c3c(-n4cc(F)cn4)c(Cl)ccc23)nc(OC)c1OCCF [Example 47, 6-chloro-N-[5-(2-fluoroethoxy)-4,6-dimethoxy-pyrimidin-2-yl]-7-(4-fluoropyrazol-1-yl)-1H-indole-3-sulfonamide] | 26
21 | COc1nc(NS(=O)(=O)c2c[nH]c3c(-n4nccn4)cccc23)nc(OC)c1CC(F)F [Example 13, N-[5-(2,2-difluoroethyl)-4,6-dimethoxy-pyrimidin-2-yl]-7-(triazol-2-yl)-1H-indole-3-sulfonamide] | 203
22 | COc1nc(NS(=O)(=O)c2c[nH]c3c(-n4nccn4)c(Cl)ccc23)nc(OC)c1OCCF [Example 14, 6-chloro-N-[5-(2-fluoroethoxy)-4,6-dimethoxy-pyrimidin-2-yl]-7-(triazol-2-yl)-1H-indole-3-sulfonamide] | 28
23 | COc1nc(NS(=O)(=O)c2c[nH]c3c(-n4cccn4)c(C)ccc23)nc(OC)c1CC(F)F [Example 80, N-[5-(2,2-difluoroethyl)-4,6-dimethoxy-pyrimidin-2-yl]-6-methyl-7-pyrazol-1-yl-1H-indole-3-sulfonamide] | 29
24 | COc1nc(NS(=O)(=O)c2c[nH]c3c(-n4cccn4)c(Cl)ccc23)nc(OC)c1OC(F)F [Example 66, 6-chloro-N-[5-(difluoromethoxy)-4,6-dimethoxy-pyrimidin-2-yl]-7-pyrazol-1-yl-1H-indole-3-sulfonamide] | 21
25 | COc1nc(NS(=O)(=O)c2c[nH]c3c(-n4nccn4)c(Br)ccc23)nc(OC)c1OCCF [Example 28, 6-bromo-N-[5-(2-fluoroethoxy)-4,6-dimethoxy-pyrimidin-2-yl]-7-(triazol-2-yl)-1H-indole-3-sulfonamide] | 27
26 | COc1nc(NS(=O)(=O)c2c[nH]c3c(-n4cccn4)c(C)ccc23)nc(OC)c1OCC(F)F [Example 74, N-[5-(2,2-difluoroethoxy)-4,6-dimethoxy-pyrimidin-2-yl]-6-methyl-7-pyrazol-1-yl-1H-indole-3-sulfonamide] | 59
27 | COc1nc(NS(=O)(=O)c2c[nH]c3c(-n4nccn4)c(Cl)c(F)cc23)nc(OC)c1OCC(F)F [Example 64, 6-chloro-N-[5-(2,2-difluoroethoxy)-4,6-dimethoxy-pyrimidin-2-yl]-5-fluoro-7-(triazol-2-yl)-1H-indole-3-sulfonamide] | 75
28 | COc1nc(NS(=O)(=O)c2c[nH]c3c(-n4cccn4)c(Cl)ccc23)nc(OC)c1CCC#N [Example 70, 6-chloro-N-[5-(2-cyanoethyl)-4,6-dimethoxy-pyrimidin-2-yl]-7-pyrazol-1-yl-1H-indole-3-sulfonamide] | 37
